What follows are compounds tested against T1, HPK1 (Homo sapiens, UniProt Q92918) (assay: HPK1 biochemical enzyme assay (microfluidic mobility shift assay)). Details: 1000 uM (1 mM) ATP; Caliper mobility shift; 1.5 nM HPK1; 30 min preincubation; read-out: HPK1 1000UMATP caliper IC50.
T1 construct: purchased Invitrogen
Description: Example 33. HPK1 Biochemical Enzyme Assay
HPK1 biochemical enzyme assay: HPK1 enzyme inhibition was measured using a microfluidic mobility shift assay. Reactions were performed in a 384-well plate, containing 1.5 nM HPK1 (Invitrogen), in assay buffer (Carna Biosciences; pH 7.4). Test compounds were titrated in ten point curves (top final assay concentration 3 μM), and preincubated with enzyme/substrate mix for 30 min prior to initiation of the reaction by addition of ATP (1 mM final concentration) and substrate (1 μM final concentration; Carna Biosciences) diluted in assay buffer supplemented by MgCl2 (final assay concentration of 5 mM). Following 60 min incubation at RT, the reaction was terminated by addition of 60 μl/well termination buffer (Carna Biosciences) and signal determination using a Caliper EZ Reader (Perkin Elmer, UK).
The compound numbers correspond to the compound numbers in Table 1. Compounds having an activity designated as “A” provided an IC50≤100 nM; compounds having an activity designated as “B” provided an IC50>100 nM and ≤1,000 nM; compounds having an activity designated as “C” provided an IC50>1,000 nM.

T1 sequence (Q92918 whole entry): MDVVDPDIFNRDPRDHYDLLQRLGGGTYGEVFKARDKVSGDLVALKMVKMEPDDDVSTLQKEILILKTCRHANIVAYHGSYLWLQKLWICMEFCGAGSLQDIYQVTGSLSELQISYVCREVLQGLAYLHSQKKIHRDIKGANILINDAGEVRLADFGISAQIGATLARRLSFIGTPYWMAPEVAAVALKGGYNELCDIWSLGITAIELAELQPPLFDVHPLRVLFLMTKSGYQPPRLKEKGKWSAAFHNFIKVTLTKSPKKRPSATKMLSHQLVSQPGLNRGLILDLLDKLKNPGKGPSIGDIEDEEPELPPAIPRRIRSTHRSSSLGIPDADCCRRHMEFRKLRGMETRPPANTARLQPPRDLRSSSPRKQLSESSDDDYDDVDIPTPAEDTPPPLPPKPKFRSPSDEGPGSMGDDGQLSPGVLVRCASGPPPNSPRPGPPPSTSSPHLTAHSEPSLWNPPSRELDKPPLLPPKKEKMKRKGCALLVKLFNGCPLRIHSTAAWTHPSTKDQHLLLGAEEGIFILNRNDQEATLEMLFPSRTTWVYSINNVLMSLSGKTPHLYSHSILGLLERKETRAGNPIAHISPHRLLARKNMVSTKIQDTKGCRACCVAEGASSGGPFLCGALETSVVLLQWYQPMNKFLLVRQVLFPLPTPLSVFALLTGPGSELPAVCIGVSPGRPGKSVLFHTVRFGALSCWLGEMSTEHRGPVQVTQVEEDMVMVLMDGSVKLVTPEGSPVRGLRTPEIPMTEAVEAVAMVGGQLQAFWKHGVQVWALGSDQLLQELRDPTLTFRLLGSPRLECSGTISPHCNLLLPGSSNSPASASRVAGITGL

Row | Compound | IC50 [nM]
1 | O=c1[nH]ccc2nc(C3CCC3)cc(Nc3ccc(N4CCC(O)CC4)cn3)c12 [I-26, 2-cyclobutyl-4-[[5-(4-hydroxy-1-piperidyl)-2-pyridyl]amino]-6H-1,6-naphthyridin-5-one] | > 1000
2 | CS(=O)(=O)Cc1ccc(Nc2cc(-c3c(F)cccc3F)nc3cc[nH]c(=O)c23)nc1 [I-30, 2-(2,6-difluoro-phenyl)-4-[[5-(methyl-sulfonyl-methyl)-2-pyridyl]amino]-6H-1,6-naphthyridin-5-one] | 100 to 1000
3 | CC(C)c1cc(Nc2ccc(S(=O)(=O)N3CCCCC3)cn2)c2c(=O)[nH]ccc2n1 [I-31, 2-isopropyl-4-[[5-(1-piperidyl-sulfonyl)-2-pyridyl]amino]-6H-1,6-naphthyridin-5-one] | 100 to 1000
4 | CCC(CC)c1cc(Nc2ccc(N3CCC(O)CC3)cn2)c2c(=O)[nH]ccc2n1 [I-32, 2-(1-ethylpropyl)-4-[[5-(4-hydroxy-1-piperidyl)-2-pyridyl]amino]-6H-1,6-naphthyridin-5-one] | 100 to 1000
5 | N#Cc1c[nH]c(=O)c2c(Nc3ccc(N4CCC(O)CC4)cn3)cc(-c3c(F)cccc3F)nc12 [I-33, 2-(2,6-difluorophenyl)-4-[[5-(4-hydroxy-1-piperidyl)-2-pyridyl]amino]-5-oxo-6H-1,6-naphthyridine-8-carbonitrile] | 100 to 1000
6 | O=c1[nH]ccc2nc(C3CCNCC3)cc(Nc3ccc(N4CCC(O)CC4)cn3)c12 [I-34, 4-[[5-(4-hydroxy-1-piperidyl)-2-pyridyl]amino]-2-(4-piperidyl)-6H-1,6-naphthyridin-5-one] | 100 to 1000
7 | O=c1[nH]ccc2nc(C3CC4CCC3C4)cc(Nc3ccc(N4CCC(O)CC4)cn3)c12 (centres unmarked) [I-35, 4-[[5-(4-hydroxy-1-piperidyl)-2-pyridyl]amino]-2-norbornan-2-yl-6H-1,6-naphthyridin-5-one] | 100 to 1000
8 | CC(O)c1cc(Nc2ccc(N3CCC(O)CC3)cn2)c2c(=O)[nH]ccc2n1 (centres unmarked) [I-37, 2-(1-hydroxyethyl)-4-[[5-(4-hydroxy-1-piperidyl)-2-pyridyl]amino]-6H-1,6-naphthyridin-5-one] | 100 to 1000
9 | O=C(O)c1c[nH]c(=O)c2c(Nc3ccc(N4CCC(O)CC4)cn3)cc(-c3c(F)cccc3F)nc12 [I-39, 2-(2,6-difluorophenyl)-4-[[5-(4-hydroxy-1-piperidyl)-2-pyridyl]amino]-5-oxo-6H-1,6-naphthyridine-8-carboxylic Acid] | > 1000
10 | O=c1[nH]ccc2nc(C3CC4CCC3C4)cc(Nc3ccc(N4CCC(O)CC4)cn3)c12 (centres unmarked) [I-40, 4-[[5-(4-hydroxy-1-piperidyl)-2-pyridyl]amino]-2-norbornan-2-yl-6H-1,6-naphthyridin-5-one] | 100 to 1000
11 | COc1ccc(F)c(-c2cc(Nc3ccc(N4CCC(O)CC4)cn3)c3c(=O)[nH]ccc3n2)c1 [I-42, 2-(2-fluoro-5-methoxyphenyl)-4-((5-(4-hydroxypiperidin-1-yl)pyridin-2-yl)amino)-1,6-naphthyridin-5(6H)-one] | 100 to 1000
12 | CCNC(=O)C(C)(C)c1ccc(Nc2cc(-c3c(F)cccc3F)nc3cc[nH]c(=O)c23)nc1 [I-46, 2-[6-[[2-(2,6-difluoro-phenyl)-5-oxo-6H-1,6-naphthyridin-4-yl]amino]-3-pyridyl]-N-ethyl-2-methyl-propanamide] | 100 to 1000
13 | CC(C)c1ccc(F)c(-c2cc(Nc3ccc(N4CCC(O)CC4)cn3)c3c(=O)[nH]ccc3n2)c1 [I-48, 2-(2-fluoro-5-isopropyl-phenyl)-4-[[5-(4-hydroxy-1-piperidyl)-2-pyridyl]amino]-6H-1,6-naphthyridin-5-one] | 100 to 1000
14 | CCc1c[nH]c(=O)c2c(Nc3ccc(N4CCC(O)CC4)cn3)cc(-c3c(F)cccc3F)nc12 [I-49, 2-(2,6-difluorophenyl)-8-ethyl-4-((5-(4-hydroxypiperidin-1-yl)pyridin-2-yl)amino)-1,6-naphthyridin-5(6H)-one] | 100 to 1000
15 | O=c1[nH]ccc2nc(N3CCCC(O)C3)cc(Nc3ccc(N4CCC(O)CC4)cn3)c12 (centres unmarked) [I-50, 2-(3-hydroxy-1-piperidyl)-4-[[5-(4-hydroxy-1-piperidyl)-2-pyridyl]amino]-6H-1,6-naphthyridin-5-one] | 100 to 1000
16 | NC(=O)c1ccc(F)c(-c2cc(Nc3ccc(N4CCC(O)CC4)cn3)c3c(=O)[nH]ccc3n2)c1 [I-51, 4-fluoro-3-[4-[[5-(4-hydroxy-1-piperidyl)-2-pyridyl]amino]-5-oxo-6H-1,6-naphthyridin-2-yl]benzamide] | 100 to 1000
17 | CCN(C)C(=O)C(C)(C)c1ccc(Nc2cc(-c3c(F)cccc3F)nc3cc[nH]c(=O)c23)nc1 [I-52, 2-[6-[[2-(2,6-difluoro-phenyl)-5-oxo-6H-1,6-naphthyridin-4-yl]amino]-3-pyridyl]-N-ethyl-N,2-dimethyl-propanamide] | 100 to 1000
18 | CC1(Cc2cc(Nc3ccc(N4CCC(O)CC4)cn3)c3c(=O)[nH]ccc3n2)COC1 [I-54, 4-[[5-(4-hydroxy-1-piperidyl)-2-pyridyl]amino]-2-[(3-methyl-oxetan-3-yl)methyl]-6H-1,6-naphthyridin-5-one] | 100 to 1000
19 | COc1cc(F)c(-c2cc(Nc3ccc(N4CCC(O)CC4)cn3)c3c(=O)[nH]ccc3n2)cc1C [I-55, 2-(2-fluoro-4-methoxy-5-methyl-phenyl)-4-[[5-(4-hydroxy-1-piperidyl)-2-pyridyl]amino]-6H-1,6-naphthyridin-5-one] | 100 to 1000
20 | O=c1[nH]cc(-c2ccccc2)c2nc(-c3c(F)cccc3F)cc(Nc3ccc(N4CCC(O)CC4)cn3)c12 [I-56] | > 1000
21 | CC(C)c1cc(Nc2ccc(N3CCC(O)CC3)cn2)c2c(=O)[nH]cnc2n1 [I-59, 5-[[5-(4-hydroxy-1-piperidyl)-2-pyridyl]amino]-7-isopropyl-3H-pyrido[2,3-d]pyrimidin-4-one] | 100 to 1000

Now from value to compound:

Row | IC50 [nM] | Compound
22 | 100 to 1000 | CC(C)c1cc(Nc2ccc(S(C)(=O)=O)cn2)c2c(=O)[nH]ccc2n1 [I-23, 2-isopropyl-4-[(5-methyl-sulfonyl-2-pyridyl)amino]-6H-1,6-naphthyridin-5-one]
23 | 100 to 1000 | O=c1[nH]ccc2nc(-c3c(F)cccc3F)cc(Nc3ccc(S(=O)(=O)N4CCCCC4)cn3)c12 [I-24, 2-(2,6-difluoro-phenyl)-4-[[5-(1-piperidyl-sulfonyl)-2-pyridyl]amino]-6H-1,6-naphthyridin-5-one]
24 | 100 to 1000 | Cc1c[nH]c(=O)c2c(Nc3ccc(N4CCC(O)CC4)cn3)cc(-c3c(F)cccc3F)nc12 [I-25, 2-(2,6-difluorophenyl)-4-[[5-(4-hydroxy-1-piperidyl)-2-pyridyl]amino]-8-methyl-6H-1,6-naphthyridin-5-one]
25 | 100 to 1000 | CC(C)Cc1cc(Nc2ccc(N3CCC(O)CC3)cn2)c2c(=O)[nH]ccc2n1 [I-28, 4-[[5-(4-hydroxy-1-piperidyl)-2-pyridyl]amino]-2-isobutyl-6H-1,6-naphthyridin-5-one]
26 | 100 to 1000 | CCNC(=O)c1ccc(Nc2cc(C(C)C)nc3cc[nH]c(=O)c23)cc1 [I-29, N-ethyl-4-[(2-isopropyl-5-oxo-6H-1,6-naphthyridin-4-yl)amino] benzamide]
27 | ≤ 100 | O=c1[nH]ccc2nc(C3CCOCC3)cc(Nc3ccc(N4CCC(O)CC4)cn3)c12 [I-36, 4-[[5-(4-hydroxy-1-piperidyl)-2-pyridyl]amino]-2-tetrahydropyran-4-yl-6H-1,6-naphthyridin-5-one]
28 | ≤ 100 | CC(C)(O)c1cc(Nc2ccc(N3CCC(O)CC3)cn2)c2c(=O)[nH]ccc2n1 [I-38, 2-(1-hydroxy-1-methyl-ethyl)-4-[[5-(4-hydroxy-1-piperidyl)-2-pyridyl]amino]-6H-1,6-naphthyridin-5-one]
29 | ≤ 100 | O=c1[nH]ccc2nc(-c3cc(C4CC4)ccc3F)cc(Nc3ccc(N4CCC(O)CC4)cn3)c12 [I-43, 2-(5-cyclopropyl-2-fluoro-phenyl)-4-[[5-(4-hydroxy-1-piperidyl)-2-pyridyl]amino]-6H-1,6-naphthyridin-5-one]
30 | ≤ 100 | O=c1[nH]ccc2nccc(Nc3ccc(N4CCC(O)CC4)cn3)c12 [I-44, 4-[[5-(4-hydroxy-1-piperidyl)-2-pyridyl]amino]-6H-1,6-naphthyridin-5-one]
31 | ≤ 100 | N#Cc1ccc(F)c(-c2cc(Nc3ccc(N4CCC(O)CC4)cn3)c3c(=O)[nH]ccc3n2)c1 [I-45, 4-fluoro-3-[4-[[5-(4-hydroxy-1-piperidyl)-2-pyridyl]amino]-5-oxo-6H-1,6-naphthyridin-2-yl] benzonitrile]
32 | ≤ 100 | CC(=O)c1cc(Nc2ccc(N3CCC(O)CC3)cn2)c2c(=O)[nH]ccc2n1 [I-47, 2-acetyl-4-[[5-(4-hydroxy-1-piperidyl)-2-pyridyl]amino]-6H-1,6-naphthyridin-5-one]
33 | ≤ 100 | CCOC(=O)C(C)(C)c1ccc(Nc2cc(-c3c(F)cccc3F)nc3cc[nH]c(=O)c23)nc1 [I-53, ethyl 2-[6-[[2-(2,6-difluoro-phenyl)-5-oxo-6H-1,6-naphthyridin-4-yl]amino]-3-pyridyl]-2-methyl-propanoate]
34 | ≤ 100 | CC(C)c1cc(Nc2ccc(N3CCN(C)CC3)cn2)c2c(=O)[nH]ccc2n1 [I-57, 2-isopropyl-4-[[5-(4-methyl-piperazin-1-yl)-2-pyridyl]amino]-6H-1,6-naphthyridin-5-one]
35 | ≤ 100 | O=C(Nc1ccc(-c2cc(Nc3ccc(N4CCC(O)CC4)cn3)c3c(=O)[nH]ccc3n2)c(F)c1)C1CC1 [I-58, N-[3-fluoro-4-[4-[[5-(4-hydroxy-1-piperidyl)-2-pyridyl]amino]-5-oxo-6H-1,6-naphthyridin-2-yl]phenyl] cyclopropane-carboxamide]
